Data as given in patent US20220127247A1, “N-(PYRIDIN-2-YL)PYRIDINE-SULFONAMIDE DERIVATIVES AND THEIR USE IN THE TREATMENT OF DISEASE” (NOVARTIS AG, priority 2019, published 2022).

Columns and labels:
[1] = target: T1, delF508-CFTR (Homo sapiens, UniProt P13569, DEL508-508); assay: delF508-CFTR functional activity in primary human bronchial epithelial cells (HBECs), Multi-Transepithelial Clamp Circuit (MTECC-24) assay; type: cell-based; conditions: for EC50: primary human delF508-CFTR bronchial epithelial cells, 24 h with compound, equivalent short circuit current (Ieq), forskolin plus potentiator, mean of at least two replicates, read-out: MTECC24-CFHBEC EC50; for MTECC24-CFHBEC Amax %: test compound added 24 h before assay, with potentiator (S)-3-amino-6-methoxy-N-(3,3,3-trifluoro-2-hydroxy-2-methylpropyl)-5-(trifluoromethyl)picolinamide, relative to 2 μM 3-(6-(1-(2,2-difluorobenzo[d][1,3]dioxol-5-yl)cyclopropane-1-carboxamido)-3-methylpyridin-2-yl)benzoic acid + 0.5 μM N-(2,4-di-tert-butyl-5-hydroxyphenyl)-4-oxo-1,4-dihydroquinoline-3-carboxamide
T1 construct: expressed in transfected cells
From the text: Measurement of delF508-CFTR Functional Activity in Primary Human Bronchial Epithelial Cells (HBECs) Using Multi-Transepithelial Clamp Circuit (MTECC-24) Assay
This assay measures the functional activity of the CFTR channel (Chloride ion transport) in patient derived primary human bronchial epithelial cells with forskolin activation and in the presence of the CFTR corrector/potentiator combination.
Primary human delF508-CFTR bronchial epithelial cells were and cultured according to previously established methods (Neuberger, T. et, al., Methods in Molecular Biology, 2011, 741, pp 39-54). Briefly, before thawing the HBEC cells, T25 flasks were coated with 2 mL of 3T3 conditioned media (MTI-GlobalStem, Cat #GSM9100) for at least 12 hours in 37° C. CO2 incubator. 1.7×10^5 cells were seeded into one T25 flask with 5 mL of HBE growth media (BEBM with supplements (Lonza, Cat #CC-3170) with 10 nM of retinoic acid (Sigma, Cat #R-2625) and 1% of PSA (Hyclone, Cat #SV30079.01). Media was changed every day till the cells were 100% confluent. Cells were seeded into T75 flasks (pre-coated with 5 mL of 3T3 conditioned media for more than 12 hrs) at 4.95×10^5 cells/T75 flask in 15 mL of HBE growth media. Flasks were fed everyday with fresh HBE growth media until the cells were confluent. 24-well transwell plates (Corning, Cat #3378) were coated with 3T3 conditioned media (70 μL on top of the filter, 350 μL to the bottom of the well) overnight in the 37° C. CO2 incubator. Cells were seeded in the pre-coated 24-well transwell plates at 1.7×10^5 cell/well with 700 μL of growth media at the bottom of the well and 200 μL of growth media at the top of the filter. After 24 hrs, cells were switched into HBE differentiation media ((DMEM/F12 (Gibco, Cat #11330-032) supplement with 2% Ultroser G (Pall, Cat #15950-017), 2% of Fetal Clone II (Hyclone, Cat #SH30066.03), 0.25% Bovine Brain Extract (Lonza, Cat #CC-4098), 1% of PSA, 2.5 μg/mL of Insulin (Sigma, Cat #19278), 20 nM of Hydrocortisone (Sigma, Cat #H0888), 500 nM of Triiodothyronine (Sigma, Cat #T6397), 2.5 μg/mL of Transferrin (Sigma, Cat #T8158), 250 nM of Ethanolamine (Sigma, Cat #E0135), 1.5 μM of Epinephrine (Sigma, Cat #E4250), 250 nM of Phosphoethanolamine (Sigma, Cat #P0503), 10 nM of retinoic acid)) with 200 μL on top of the filter (apical side) and 700 μL at the bottom of the well (basolateral side). Cells were fed every other day with the differentiation media. After 4 days, cells were exposed to air/liquid interface. Then cells were fed every other day for 4 weeks before fully differentiated.
Cells were washed with 3 mM DTT in PBS at 70 ul/well for 30 min at 37° C. 6 days before the assay. 3 days before the assay, cells were washed again with PBS at 70 ul/well for 30 min at 37° C. Then cells were treated with compound for 24 hrs before the assay.
Following 24 hr treatment with compound, cells were transferred into plates containing 750 ul of assay media on basolateral side and 250 ul on apical side (Assay medium: F-12 Coon's modified, 20 mM HEPES pH7.4 with TRIS Base, No FCS or bicarbonate). The plates wee then transferred to the heated plate compartments (basolateral buffer temperature ˜36.5° C. on the heating block) of the TECC24 system for 45 mins prior to measurements.
Modulators were added sequentially as follows while the TECC24 instrument recorded the equivalent short circuit current (Ieq):
Prior to dilution into assay medium the stocks were as follows: • Benzamil stock: 10 mM in DMSO • Forskolin Stock: 50 mM in DMSO • N-(2,4-di-tert-butyl-5-hydroxyphenyl)-1,4-dihydro-4-oxoquinoline-3-carboxamide: 50 mM in DMSO • (S)-3-amino-6-methoxy-N-(3,3,3-trifluoro-2-hydroxy-2-methylpropyl)-5-(trifluoromethyl)picolinamide: 50 mM stock 100% DMSO • Bumetanide stock: 20 mM in EtOH
The data was normalized using the median signal from wells treated with 0.1% DMSO as a baseline. Curve fitting and EC50 calculations were performed using the following equation: […]

[2] = target: T1, delF508-CFTR; assay: Measurement of delF508-CFTR-HRP surface expression in CFBE41o- cells; type: cell-based; conditions: for EC50: HRP-tagged delF508-CFTR in CFBE41o- cells, 24 h with compound, luminescence, 10-point curve, top 10 μM; for Emax: efficacy relative to reference compound 3-(6-(1-(2,2-difluorobenzo[d][1,3]dioxol-5-yl)cyclopropane-1-carboxamido)-3-methylpyridin-2-yl)benzoic acid, CFBE41o- cells, 24 h, read-out: DelF508-CFTR-HRP Amax %
How it was run: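 CFBE41o- cells stably expressing delF508-CFTR with HRP in the fourth extracellular loop, induced with 500 ng/mL doxycycline for 48 h, then treated with compound (top 10 μM, 10-point 3-fold) for 24 h at 37° C. Surface HRP detected by luminescence with cell-impermeant substrate; EC50 from logistic fit of triplicates, normalized to lowest concentration.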

T1 sequence (P13569 with tags, fused parts or gaps DEL508-508): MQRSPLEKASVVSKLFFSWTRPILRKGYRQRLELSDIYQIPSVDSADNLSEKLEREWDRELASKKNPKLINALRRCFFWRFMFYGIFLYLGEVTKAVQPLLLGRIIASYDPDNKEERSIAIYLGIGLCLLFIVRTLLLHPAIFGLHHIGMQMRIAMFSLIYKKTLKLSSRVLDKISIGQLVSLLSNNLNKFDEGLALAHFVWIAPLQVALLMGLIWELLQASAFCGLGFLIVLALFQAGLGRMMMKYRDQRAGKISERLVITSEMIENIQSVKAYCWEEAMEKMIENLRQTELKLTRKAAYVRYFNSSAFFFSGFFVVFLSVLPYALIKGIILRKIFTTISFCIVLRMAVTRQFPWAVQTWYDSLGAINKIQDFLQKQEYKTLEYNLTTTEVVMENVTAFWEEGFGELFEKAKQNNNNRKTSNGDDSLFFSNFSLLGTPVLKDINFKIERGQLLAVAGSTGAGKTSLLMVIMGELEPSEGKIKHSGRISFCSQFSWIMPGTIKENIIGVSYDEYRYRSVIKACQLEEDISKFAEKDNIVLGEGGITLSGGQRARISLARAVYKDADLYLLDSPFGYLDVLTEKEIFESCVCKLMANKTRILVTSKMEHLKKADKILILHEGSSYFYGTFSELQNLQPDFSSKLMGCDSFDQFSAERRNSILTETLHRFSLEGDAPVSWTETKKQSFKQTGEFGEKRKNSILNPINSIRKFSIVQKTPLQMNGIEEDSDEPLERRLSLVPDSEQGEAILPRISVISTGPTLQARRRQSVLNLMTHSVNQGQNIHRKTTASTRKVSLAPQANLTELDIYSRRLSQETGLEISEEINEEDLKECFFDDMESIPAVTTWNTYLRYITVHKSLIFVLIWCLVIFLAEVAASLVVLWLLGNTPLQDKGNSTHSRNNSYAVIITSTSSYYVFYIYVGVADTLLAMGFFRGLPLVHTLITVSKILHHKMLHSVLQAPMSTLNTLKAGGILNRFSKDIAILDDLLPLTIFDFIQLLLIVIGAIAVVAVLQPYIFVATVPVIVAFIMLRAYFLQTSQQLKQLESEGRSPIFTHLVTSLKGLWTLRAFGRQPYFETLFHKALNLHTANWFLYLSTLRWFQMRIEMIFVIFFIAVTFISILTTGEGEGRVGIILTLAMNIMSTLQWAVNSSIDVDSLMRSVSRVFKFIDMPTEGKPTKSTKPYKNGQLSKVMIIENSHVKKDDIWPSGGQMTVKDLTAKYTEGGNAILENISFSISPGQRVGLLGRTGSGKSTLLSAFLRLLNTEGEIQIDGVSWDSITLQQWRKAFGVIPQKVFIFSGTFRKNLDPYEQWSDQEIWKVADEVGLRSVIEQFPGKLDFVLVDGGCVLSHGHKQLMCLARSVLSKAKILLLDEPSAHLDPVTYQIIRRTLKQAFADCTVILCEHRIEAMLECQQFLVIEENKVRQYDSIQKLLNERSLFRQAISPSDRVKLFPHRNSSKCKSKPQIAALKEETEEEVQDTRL

Row | Compound | EC50 [1] [µM] | MTECC24-CFHBEC Amax % [1] [%] | EC50 [2] [µM] | Emax [2] [%]
1 | Cc1ccccc1-c1nc(NS(=O)(=O)c2cccc(N3CCC[C@H](CCC(=O)O)C3)n2)ccc1C(F)(F)F (single isomer, unassigned) [Compound 62] | 0.009 | 150 | 1.22 | 
2 | Cc1ccccc1-c1nc(NS(=O)(=O)c2cccc(N3CCC[C@@H](CCC(=O)O)C3)n2)ccc1C(F)(F)F (single isomer, unassigned) [Compound 63] | 0.017 | 149 | 1.46 | 
3 | Cc1ccc(F)cc1-c1nc(NS(=O)(=O)c2cccc(N3CCC[C@@](C)(CC(=O)O)C3)n2)ccc1C(F)(F)F (single isomer, unassigned) [Compound 64] | 0.002 | 107 | 1.33 | 
4 | Cc1ccc(F)cc1-c1nc(NS(=O)(=O)c2cccc(N3CCC[C@](C)(CC(=O)O)C3)n2)ccc1C(F)(F)F (single isomer, unassigned) [Compound 65] | 0.031 | 155 | 1.73 | 
5 | Cc1ccc(F)cc1-c1nc(NS(=O)(=O)c2cccc(N(C)CC3(C(=O)O)CCC3)n2)ccc1C(F)(F)F [Compound 139, 1-(((6-(N-(6-(5-fluoro-2-methylphenyl)-5-(trifluoromethyl)pyridin-2-yl)sulfamoyl)pyridin-2-yl)(methyl)amino)methyl)cyclobutane-1-carboxylic Acid] |  |  | 1.12 | 
6 | CCN(CCC(=O)O)c1cc(S(=O)(=O)Nc2ccc(Cl)c(-c3c(C)cccc3C)n2)ccn1 [Compound 140, 3-((4-(N-(5-chloro-6-(2,6-dimethylphenyl)pyridin-2-yl)sulfamoyl)pyridin-2-yl)(ethyl)amino)propanoic Acid] |  |  | 2.92 | 209
7 | CCC(CC(=O)O)Nc1cc(S(=O)(=O)Nc2ccc(Cl)c(-c3c(C)cccc3C)n2)ccn1 (stereo not drawn) [Compound 141] |  |  | 3.94 | 291
8 | Cc1cccc(C)c1-c1nc(NS(=O)(=O)c2ccnc(NC(C)CC(=O)O)c2)ccc1Cl (stereo not drawn) [Compound 142, 3-((4-(N-(5-chloro-6-(2,6-dimethylphenyl)pyridin-2-yl)sulfamoyl)pyridin-2-yl)amino)butanoic Acid] |  |  | 4.46 | 84
9 | Cc1ccccc1-c1nc(NS(=O)(=O)c2cccc(NC(C(=O)O)C34CC5CC(CC(C5)C3)C4)n2)ccc1C(F)(F)F (stereo not drawn) [Compound 143, 2-(adamantan-1-yl)-2-((6-(N-(6-(o-tolyl)-5-(trifluoromethyl)pyridin-2-yl)sulfamoyl)pyridin-2-yl)amino)acetic Acid] |  |  | 2.39 | 
10 | CCN(CCC(=O)O)c1cc(S(=O)(=O)Nc2ccc(Cl)c(-c3cc(F)ccc3C)n2)ccn1 [Compound 144, 3-((4-(N-(5-chloro-6-(5-fluoro-2-methylphenyl)pyridin-2-yl)sulfamoyl)pyridin-2-yl)(ethyl)amino)propanoic Acid] |  |  | 4.55 | 52
11 | CCN(CCC(=O)O)c1cccc(S(=O)(=O)Nc2ccc(C(F)(F)F)c(-c3c(C)cccc3C)n2)n1 [Compound 145, 3-((6-(N-(6-(2,6-dimethylphenyl)-5-(trifluoromethyl)pyridin-2-yl)sulfamoyl)pyridin-2-yl)(ethyl)amino)propanoic Acid] |  |  | 1.83 | 
12 | Cc1ccccc1-c1nc(NS(=O)(=O)c2cccc(NCC(=O)O)n2)ccc1C(F)(F)F [Compound 146, (6-(N-(6-(o-tolyl)-5-(trifluoromethyl)pyridin-2-yl)sulfamoyl)pyridin-2-yl)glycine] |  |  | 2.5 | 60

The remaining lines, values ahead:

Row | EC50 [1] [µM] | MTECC24-CFHBEC Amax % [1] [%] | EC50 [2] [µM] | Emax [2] [%] | Compound
13 |  |  | 1.15 | 802 | Cc1ccccc1-c1nc(NS(=O)(=O)c2cccc(N(CCC(=O)O)C3CCC3)n2)ccc1C(F)(F)F [Compound 147, 3-(cyclobutyl(6-(N-(6-(o-tolyl)-5-(trifluoromethyl)pyridin-2-yl)sulfamoyl)pyridin-2-yl)amino)propanoic acid]
14 |  |  | 1.67 |  | Cc1ccccc1-c1nc(NS(=O)(=O)c2cccc(N(CCC(=O)O)CCC(F)(F)F)n2)ccc1C(F)(F)F [Compound 150, 3-((6-(N-(6-(o-tolyl)-5-(trifluoromethyl)pyridin-2-yl)sulfamoyl)pyridin-2-yl)(3,3,3-trifluoropropyl)amino)propanoic Acid]
15 |  |  | 1.9 |  | Cc1ccc(F)cc1-c1nc(NS(=O)(=O)c2cccc(N(CCC(=O)O)CCC(F)(F)F)n2)ccc1C(F)(F)F [Compound 151, 3-((6-(N-(6-(5-fluoro-2-methylphenyl)-5-(trifluoromethyl)pyridin-2-yl)sulfamoyl)pyridin-2-yl)(3,3,3-trifluoropropyl)amino)propanoic Acid]
16 |  |  | 0.78 | 641 | CCCCN(CCC(=O)O)c1cccc(S(=O)(=O)Nc2ccc(C(F)(F)F)c(-c3ccccc3C)n2)n1 [Compound 152, 3-(butyl(6-(N-(6-(o-tolyl)-5-(trifluoromethyl)pyridin-2-yl)sulfamoyl)pyridin-2-yl)amino)propanoic Acid]
17 |  |  | 0.82 | 770 | CCCCN(CCC(=O)O)c1cccc(S(=O)(=O)Nc2ccc(C(F)(F)F)c(-c3cc(F)ccc3C)n2)n1 [Compound 153, 3-(butyl(6-(N-(6-(5-fluoro-2-methylphenyl)-5-(trifluoromethyl)pyridin-2-yl)sulfamoyl)pyridin-2-yl)amino)propanoic Acid]
18 |  |  | 0.93 | 686 | Cc1ccccc1-c1nc(NS(=O)(=O)c2cccc(N(CCCC(=O)O)CC(C)C)n2)ccc1Cl [Compound 154, 4-((6-(N-(5-chloro-6-(o-tolyl)pyridin-2-yl)sulfamoyl)pyridin-2-yl)(isobutyl)amino)butanoic Acid]
19 |  |  | 0.67 | 699 | Cc1cccc(C)c1-c1nc(NS(=O)(=O)c2cccc(N(CCCC(=O)O)CC(C)C)n2)ccc1Cl [Compound 155, 4-((6-(N-(5-chloro-6-(2,6-dimethylphenyl)pyridin-2-yl)sulfamoyl)pyridin-2-yl)(isobutyl)amino)butanoic Acid]
20 |  |  | 1.81 | 839 | COCCN(CCCC(=O)O)c1cccc(S(=O)(=O)Nc2ccc(C(F)(F)F)c(-c3ccccc3C)n2)n1 [Compound 158, 4-((2-methoxyethyl)(6-(N-(6-(o-tolyl)-5-(trifluoromethyl)pyridin-2-yl)sulfamoyl)pyridin-2-yl)amino)butanoic Acid]
